The term IC50 denotes the midpoint of a concentration-inhibition curve.

Read-outs that look alike come from different tables or passages of the source.

Consider 5 compounds from patent US9650384B2, “Substituted pyrimidine compounds and methods of use and manufacture” (Duquesne University of the Holy Spirit, priority 2014, dated 2017).

Experiment [1] relates to KB human tumor subline (expressing RFC, FRα, and PCFT). Kind of experiment: Growth inhibition assay, KB human tumor subline. The format is cell-based.
The subject of experiment [2] is CHO subline engineered to express human RFC (PC43-10). Kind of experiment: Growth inhibition assay, CHO subline PC43-10 expressing human RFC. Format: cell-based.
The test system of experiment [3] is CHO subline engineered to express human PCFT (R2/PCFT4). Kind of experiment: Growth inhibition assay, CHO subline R2/PCFT4 expressing PCFT. The following applies: R2/PCFT4 cells. The format is cell-based.
The test system of experiment [4] is CHO subline engineered to express human FRα (RT16). Kind of experiment: Growth inhibition assay, CHO subline RT16 expressing FRα. The format is cell-based. The following applies: read-out: IC50 RT16, FR.
Experiment [5] concerns transporter-null (R2) CHO cells. Description: Growth inhibition assay, transporter-null R2 CHO cells. The following applies: Cricetulus griseus, Table 1, mean of 3 to 10 experiments. Format: cell-based.
The target of another experiment is AICARFTase (Homo sapiens, UniProt P31939). The following applies: reported in reference 1; cited from earlier work.
AICARFTase, sequence (P31939 whole entry): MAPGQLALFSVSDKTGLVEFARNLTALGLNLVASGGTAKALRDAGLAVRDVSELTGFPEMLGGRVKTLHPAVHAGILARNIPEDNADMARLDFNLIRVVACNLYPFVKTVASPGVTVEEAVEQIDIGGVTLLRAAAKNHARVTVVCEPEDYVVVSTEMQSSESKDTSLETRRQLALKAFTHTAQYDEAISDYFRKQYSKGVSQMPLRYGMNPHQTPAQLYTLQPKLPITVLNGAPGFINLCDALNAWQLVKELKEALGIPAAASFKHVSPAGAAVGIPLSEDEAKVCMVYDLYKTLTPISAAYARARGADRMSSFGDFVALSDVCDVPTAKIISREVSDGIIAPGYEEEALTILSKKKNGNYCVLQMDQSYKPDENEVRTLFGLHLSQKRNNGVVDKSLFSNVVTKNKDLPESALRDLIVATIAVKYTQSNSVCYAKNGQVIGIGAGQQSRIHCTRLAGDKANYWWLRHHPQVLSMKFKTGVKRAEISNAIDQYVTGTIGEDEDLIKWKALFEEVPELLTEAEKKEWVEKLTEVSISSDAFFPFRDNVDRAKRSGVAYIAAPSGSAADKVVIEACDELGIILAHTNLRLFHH
In a further experiment the target is T1, GARFTase (Homo sapiens, UniProt P22102).
T1 sequence (P22102 1-1010): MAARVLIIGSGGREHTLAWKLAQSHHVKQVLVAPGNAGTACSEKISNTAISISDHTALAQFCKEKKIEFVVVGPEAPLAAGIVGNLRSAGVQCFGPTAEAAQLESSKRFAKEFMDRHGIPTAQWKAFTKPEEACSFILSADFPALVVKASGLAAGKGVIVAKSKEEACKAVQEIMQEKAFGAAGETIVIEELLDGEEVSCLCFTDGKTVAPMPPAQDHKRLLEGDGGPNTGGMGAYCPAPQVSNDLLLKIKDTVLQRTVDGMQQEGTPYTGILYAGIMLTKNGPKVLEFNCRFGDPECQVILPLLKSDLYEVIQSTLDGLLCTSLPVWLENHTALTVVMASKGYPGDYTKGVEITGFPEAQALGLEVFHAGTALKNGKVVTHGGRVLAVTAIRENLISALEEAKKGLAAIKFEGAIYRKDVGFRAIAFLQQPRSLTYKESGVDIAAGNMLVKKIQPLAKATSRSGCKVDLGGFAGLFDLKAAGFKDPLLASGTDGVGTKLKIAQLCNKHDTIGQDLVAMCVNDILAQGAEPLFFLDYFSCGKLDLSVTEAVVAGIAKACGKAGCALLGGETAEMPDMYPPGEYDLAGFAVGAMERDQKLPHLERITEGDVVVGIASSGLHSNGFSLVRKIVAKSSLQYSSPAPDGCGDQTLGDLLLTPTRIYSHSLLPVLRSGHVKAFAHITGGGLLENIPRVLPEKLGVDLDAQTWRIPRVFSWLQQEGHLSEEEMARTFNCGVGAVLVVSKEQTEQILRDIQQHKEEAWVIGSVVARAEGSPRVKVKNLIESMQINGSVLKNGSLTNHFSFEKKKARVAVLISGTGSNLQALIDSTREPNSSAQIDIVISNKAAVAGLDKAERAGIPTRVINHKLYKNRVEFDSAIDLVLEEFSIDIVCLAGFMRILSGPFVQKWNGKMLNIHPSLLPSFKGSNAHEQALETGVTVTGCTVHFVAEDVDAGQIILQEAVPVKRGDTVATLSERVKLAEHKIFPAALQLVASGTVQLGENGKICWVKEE
The following applies: reported in reference 1; cited from earlier work.

Setting [6] is: Table 1, growth inhibition by 50% relative to cells without drug, mean of 3 to 10 experiments.

On to `Nc1nc2[nH]cc(CCCCc3cccc(C(=O)N[C@@H](CCC(=O)O)C(=O)O)c3)c2c(=O)[nH]1` [Compound 11], for which the IC50 was greater than 1000 nM in experiment [1] (Table 2), 608 nM in experiment [2] (Table 2), greater than 1000 nM in experiment [3] (Table 2) and greater than 1000 nM in experiment [4] (Table 2).

Turning to `Nc1nc2[nH]cc(CCCSc3ccc(C(=O)N[C@@H](CCC(=O)O)C(=O)O)cc3)c2c(=O)[nH]1` [Compound 10], the IC50 in experiment [1] (Table 2) was greater than 1000 nM; in experiment [2] (Table 2), greater than 1000 nM; in experiment [3] (Table 2), 549 nM; in experiment [4] (Table 2), 281 nM.

As to `Nc1nc2[nH]cc(CCCOc3ccc(C(=O)N[C@@H](CCC(=O)O)C(=O)O)cc3)c2c(=O)[nH]1` [Compound 9], the IC50 in experiment [1] (Table 2) was found to be 51 nM; in experiment [2] (Table 2), 53.2 nM; in experiment [3] (Table 2), 390 nM; in experiment [4] (Table 2), 42.2 nM.

Turning to `Nc1nc2[nH]cc(CCc3ccc(C(=O)N[C@@H](CCC(=O)O)C(=O)O)cc3)c2c(=O)[nH]1` [PMX, Pemetrexed], the IC50 is 9.94 nM in experiment [1] (Table 2), 30.6 nM in experiment [2] (Table 2) and greater than 1000 nM in experiment [5].

Regarding `Nc1nc2[nH]cc(CCCCc3ccc(C(=O)N[C@@H](CCC(=O)O)C(=O)O)cc3)c2c(=O)[nH]1` [Compound 3], the IC50 in experiment [1] (setting [6]) came out at 12.7 nM; in experiment [1] (Table 2), 12.7 nM; in experiment [2] (setting [6]), 56.6 nM; in experiment [2] (Table 2) it was 56.6 nM; in experiment [3] (Table 1, mean of 3 to 10 experiments), 840 nM; in experiment [3] (Table 2), 840 nM. Besides, the 50% inhibitory concentration (IC50) in experiment [4] (setting [6]) and in experiment [4] (Table 2) was 8.6 nM throughout. Besides, the “inhibition of AICARFTase” value at AICARFTase is recorded as “inhibited”. Also, on GARFTase, the “inhibition of GARFTase” value is reported as “inhibited”.
